Assay results from PubChem BioAssay AID1259407 (Chemical Carcinogenesis Research Information System (CCRIS), 2018).
Activity calls are given as the source filed them. The rule behind the calls is not given here.

Tested on: CCRIS mutagenicity, Ames/micronucleus/aberration tests
Test: CCRIS mutagenicity studies
[1] = Test System: AMES SALMONELLA TYPHIMURIUM, Strain/Indicator: TA98, Metabolic Activation: NONE, Method: PREINCUBATION
[2] = Test System: AMES SALMONELLA TYPHIMURIUM, Strain/Indicator: TA100, Metabolic Activation: NONE, Method: PREINCUBATION
[3] = Test System: AMES SALMONELLA TYPHIMURIUM, Strain/Indicator: TA100, Metabolic Activation: NONE, Method: STANDARD PLATE
[4] = Test System: AMES SALMONELLA TYPHIMURIUM, Strain/Indicator: TA100, Metabolic Activation: RAT, LIVER, S-9, AROCLOR 1254, Method: STANDARD PLATE
[5] = Test System: AMES SALMONELLA TYPHIMURIUM, Strain/Indicator: TA1535, Metabolic Activation: NONE, Method: PREINCUBATION
[6] = Test System: AMES SALMONELLA TYPHIMURIUM, Strain/Indicator: TA1535, Metabolic Activation: NONE, Method: STANDARD PLATE
[7] = Test System: AMES SALMONELLA TYPHIMURIUM, Strain/Indicator: TA1537, Metabolic Activation: NONE, Method: PREINCUBATION
[8] = Test System: CHINESE HAMSTER V-79, Strain/Indicator: V-79/6-THIOGUANINE, Metabolic Activation: NONE

OCC1CO1 (stereo unspecified)
mutagenic call (End Point: IN VITRO CHROMOSOMAL ABERRATIONS, Test System: CHL CELLS, Metabolic Activation: NONE): active; positive (structural changes) | mutagenic call (End Point: IN VITRO CHROMOSOMAL ABERRATIONS, Test System: CHL CELLS, Metabolic Activation: RAT, LIVER, S-9, SODIUM PHENOBARBITAL AND 5,6-BENZOFLAVONE): active; positive (structural changes) | mutagenic call (Test System: AMES SALMONELLA TYPHIMURIUM, Strain/Indicator: TA97, Metabolic Activation: HAMSTER, LIVER, S-9, AROCLOR 1254, Method: PREINCUBATION): active; positive | mutagenic call (Test System: AMES SALMONELLA TYPHIMURIUM, Strain/Indicator: TA97, Metabolic Activation: NONE, Method: PREINCUBATION): active; positive | mutagenic call (Test System: AMES SALMONELLA TYPHIMURIUM, Strain/Indicator: TA97, Metabolic Activation: RAT, LIVER, S-9, AROCLOR 1254, Method: PREINCUBATION): active; positive | mutagenic call (Test System: AMES SALMONELLA TYPHIMURIUM, Strain/Indicator: TA98, Metabolic Activation: HAMSTER, LIVER, S-9, AROCLOR 1254, Method: PREINCUBATION): active; positive | mutagenic call [1]: active; positive | mutagenic call (Test System: AMES SALMONELLA TYPHIMURIUM, Strain/Indicator: TA98, Metabolic Activation: RAT, LIVER, S-9, AROCLOR 1254, Method: PREINCUBATION): active; positive | mutagenic call (Test System: AMES SALMONELLA TYPHIMURIUM, Strain/Indicator: TA100, Metabolic Activation: HAMSTER, LIVER, S-9, AROCLOR 1254, Method: PREINCUBATION): active; positive | mutagenic call [2]: active; positive | mutagenic call [3]: active; positive | mutagenic call (Test System: AMES SALMONELLA TYPHIMURIUM, Strain/Indicator: TA100, Metabolic Activation: RAT, LIVER, S-9, AROCLOR 1254, Method: PREINCUBATION): active; positive | mutagenic call [4]: active; positive | mutagenic call (Test System: AMES SALMONELLA TYPHIMURIUM, Strain/Indicator: TA100, Metabolic Activation: RAT, LIVER, S-9, PCB, Method: PREINCUBATION): active; positive | mutagenic call (Test System: AMES SALMONELLA TYPHIMURIUM, Strain/Indicator: TA1535, Metabolic Activation: HAMSTER, LIVER, S-9, AROCLOR 1254, Method: PREINCUBATION): active; positive | mutagenic call [5]: active; positive | mutagenic call [6]: active; positive | mutagenic call (Test System: AMES SALMONELLA TYPHIMURIUM, Strain/Indicator: TA1535, Metabolic Activation: RAT, LIVER, S-9, AROCLOR 1254, Method: PREINCUBATION): active; positive | mutagenic call (Test System: AMES SALMONELLA TYPHIMURIUM, Strain/Indicator: TA1537, Metabolic Activation: HAMSTER, LIVER, S-9, AROCLOR 1254, Method: PREINCUBATION): active; positive | mutagenic call [7]: active; positive | mutagenic call (Test System: AMES SALMONELLA TYPHIMURIUM, Strain/Indicator: TA1537, Metabolic Activation: RAT, LIVER, S-9, AROCLOR 1254, Method: PREINCUBATION): active; positive | mutagenic call (Test System: Ames Salmonella typhimurium, Strain/Indicator: TA98, Metabolic Activation: None, Method: Preincubation): active; positive | mutagenic call (Test System: Ames Salmonella typhimurium, Strain/Indicator: TA98, Metabolic Activation: Rat, Liver, S9, Sodium phenobarbital and 5,6-benzoflavone (10%), Method: Preincubation): active; positive | mutagenic call (Test System: Ames Salmonella typhimurium, Strain/Indicator: TA100, Metabolic Activation: None, Method: Preincubation): active; positive | mutagenic call (Test System: Ames Salmonella typhimurium, Strain/Indicator: TA100, Metabolic Activation: Rat, Liver, S9, Sodium phenobarbital and 5,6-benzoflavone (10%), Method: Preincubation): active; positive | mutagenic call (Test System: Ames Salmonella typhimurium, Strain/Indicator: TA1535, Metabolic Activation: None, Method: Preincubation): active; positive | mutagenic call (Test System: Ames Salmonella typhimurium, Strain/Indicator: TA1535, Metabolic Activation: Rat, Liver, S9, Sodium phenobarbital and 5,6-benzoflavone (10%), Method: Preincubation): active; positive | mutagenic call (Test System: Ames Salmonella typhimurium, Strain/Indicator: TA1537, Metabolic Activation: None, Method: Preincubation): active; positive | mutagenic call (Test System: Ames Salmonella typhimurium, Strain/Indicator: TA1537, Metabolic Activation: Rat, Liver, S9, Sodium phenobarbital and 5,6-benzoflavone (10%), Method: Preincubation): inactive; negative | mutagenic call [8]: active; positive | mutagenic call (Test System: E. coli, Strain/Indicator: WP2uvrA/pKM101, Metabolic Activation: None, Method: Preincubation): active; positive | mutagenic call (Test System: E. coli, Strain/Indicator: WP2uvrA/pKM101, Metabolic Activation: Rat, Liver, S9, Sodium phenobarbital and 5,6-benzoflavone (10%), Method: Preincubation): active; positive | mutagenic call (Test System: MOUSE LYMPHOMA, Strain/Indicator: L5178Y (TK+/TK-), Metabolic Activation: NONE, Method: SUSPENSION/PLATE): active; positive

CCCCCN(CCCCC)N=O
mutagenic call (Test System: AMES SALMONELLA TYPHIMURIUM, Strain/Indicator: TA100, Metabolic Activation: RAT, LIVER, S-9, KC500 OR PHENOBARBITAL, Method: LIQUID SUSPENSION): active; positive | mutagenic call (Test System: AMES SALMONELLA TYPHIMURIUM, Strain/Indicator: TA1530, Metabolic Activation: RAT, LIVER, S-9, Method: STANDARD PLATE): active; positive | mutagenic call (Test System: CHINESE HAMSTER V-79, Strain/Indicator: V-79/8-AZAGUANINE, Metabolic Activation: CELL-MEDIATED, Method: STANDARD PLATE): active; positive

CN(C)CCCN1c2ccccc2Sc2ccc(Cl)cc21
mutagenic call (End Point: IN VITRO CHROMOSOMAL ABERRATIONS, Test System: CHINESE HAMSTER OVARY CELLS, Metabolic Activation: NONE): inactive; negative | mutagenic call (End Point: IN VITRO CHROMOSOMAL ABERRATIONS, Test System: CHINESE HAMSTER OVARY CELLS, Metabolic Activation: RAT, LIVER, S-9, AROCLOR 1254): inactive; negative | mutagenic call (Test System: AMES SALMONELLA TYPHIMURIUM, Strain/Indicator: TA98, Metabolic Activation: HAMSTER, LIVER, S-9, AROCLOR 1254 (10%), Method: PREINCUBATION): inactive; negative | mutagenic call [1]: inactive; negative | mutagenic call (Test System: AMES SALMONELLA TYPHIMURIUM, Strain/Indicator: TA98, Metabolic Activation: NONE, Method: SPOT TEST): inactive; negative | mutagenic call (Test System: AMES SALMONELLA TYPHIMURIUM, Strain/Indicator: TA98, Metabolic Activation: NONE, Method: STANDARD PLATE): inactive; negative | mutagenic call (Test System: AMES SALMONELLA TYPHIMURIUM, Strain/Indicator: TA98, Metabolic Activation: RAT, LIVER, S-9, AROCLOR 1254 (10%), Method: PREINCUBATION): inactive; negative | mutagenic call (Test System: AMES SALMONELLA TYPHIMURIUM, Strain/Indicator: TA98, Metabolic Activation: RAT, LIVER, S-9, AROCLOR 1254, Method: STANDARD PLATE): inactive; negative | mutagenic call (Test System: AMES SALMONELLA TYPHIMURIUM, Strain/Indicator: TA100, Metabolic Activation: HAMSTER, LIVER, S-9, AROCLOR 1254 (10%), Method: PREINCUBATION): inactive; negative | mutagenic call [2]: inactive; negative | mutagenic call [3]: inactive; negative | mutagenic call (Test System: AMES SALMONELLA TYPHIMURIUM, Strain/Indicator: TA100, Metabolic Activation: RAT, LIVER, S-9, AROCLOR 1254 (10%), Method: PREINCUBATION): inactive; negative | mutagenic call [4]: inactive; negative | mutagenic call (Test System: AMES SALMONELLA TYPHIMURIUM, Strain/Indicator: TA1535, Metabolic Activation: HAMSTER, LIVER, S-9, AROCLOR 1254 (10%), Method: PREINCUBATION): inactive; negative | mutagenic call [5]: inactive; negative | mutagenic call [6]: inactive; negative | mutagenic call (Test System: AMES SALMONELLA TYPHIMURIUM, Strain/Indicator: TA1535, Metabolic Activation: RAT, LIVER, S-9, AROCLOR 1254 (10%), Method: PREINCUBATION): inactive; negative | mutagenic call (Test System: AMES SALMONELLA TYPHIMURIUM, Strain/Indicator: TA1535, Metabolic Activation: RAT, LIVER, S-9, AROCLOR 1254, Method: STANDARD PLATE): inactive; negative | mutagenic call (Test System: AMES SALMONELLA TYPHIMURIUM, Strain/Indicator: TA1537, Metabolic Activation: HAMSTER, LIVER, S-9, AROCLOR 1254 (10%), Method: PREINCUBATION): inactive; negative | mutagenic call [7]: inactive; negative | mutagenic call (Test System: AMES SALMONELLA TYPHIMURIUM, Strain/Indicator: TA1537, Metabolic Activation: NONE, Method: STANDARD PLATE): inactive; negative | mutagenic call (Test System: AMES SALMONELLA TYPHIMURIUM, Strain/Indicator: TA1537, Metabolic Activation: RAT, LIVER, S-9, AROCLOR 1254 (10%), Method: PREINCUBATION): active; positive | mutagenic call (Test System: AMES SALMONELLA TYPHIMURIUM, Strain/Indicator: TA1537, Metabolic Activation: RAT, LIVER, S-9, AROCLOR 1254, Method: STANDARD PLATE): inactive; negative | mutagenic call [8]: inactive; negative | mutagenic call (Test System: CHINESE HAMSTER V-79, Strain/Indicator: V-79/OUABAIN, Metabolic Activation: NONE): inactive; negative
